Experimental findings from patent US10421756B2, “Heterobicyclic N-aminophenyl-amides as inhibitors of histone deacetylase” (Rodin Therapeutics, Inc., priority 2015, dated 2019) are described below.

What all share (assay type): binding
Experiment [1] addresses T1, HDAC2 (Homo sapiens (Human), UniProt Q92769). The experiment in a line: Reporter displacement assay (HDAC2). The conditions noted are these: reporter probe displacement, Cheng Prusoff. The method, then:
HDAC2 containing a C-terminal HIS-Tag (Proteros) and fluorescently-labeled anti-HIS-antibody are diluted in one vial in assay buffer 50 mM Tris, pH 8.0, 1 mM DTT, 150 mM NaCl, and 0.01% Tween20. Components are pre-incubated for 30 min, then a small volume of reporter probe (Proteros) is added from a highly concentrated stock and incubation is continued for another 30 min. Final concentrations after adding the reporter probe amount to 20 nM HDAC2, 4 nM antibody, and 180 nM probe.
Ten μl/well of pre-formed complex are transferred into 384 well assay plates (Corning). Compounds to be profiled are serially diluted from […] in DMSO and 60 nl are added to assay plates by pintool transfer (CybiWell, Cybio). Fluorescence intensity signal is read after 4 h in a Pherastar FS (BMG Labtech) at 337/665 nm.
For Kd determination, percent probe displacement values are calculated for each compound concentration and plotted against the compound concentration. IC50-like values (corresponding to 50% probe displacement) are calculated using standard fitting algorithms. Since the reporter probe is used at a concentration reflecting its own Kd value, compound Kd values can be calculated according to the Cheng Prusoff equation.
In the table, “A” indicates a Kd value of less than 0.1 μM; “B” a Kd value of between 0.1 μM and 0.5 μM; “C” a Kd value of greater than 0.5 μM and less than or equal to 5.0 μM; and “D” a Kd value of greater than 5.0 μM.

For another experiment, the target named is HDAC1 (Homo sapiens (Human), UniProt Q13547). As to the kind of experiment: Reporter displacement assay (HDAC1). The conditions noted are these: for Kd: reporter probe displacement, Cheng Prusoff. The method, then: [The procedure below names another target; the source lists this target under the same test.] HDAC2 containing a C-terminal HIS-Tag (Proteros) and fluorescently-labeled anti-HIS-antibody are diluted in one vial in assay buffer 50 mM Tris, pH 8.0, 1 mM DTT, 150 mM NaCl, and 0.01% Tween20. Components are pre-incubated for 30 min, then a small volume of reporter probe (Proteros) is added from a highly concentrated stock and incubation is continued for another 30 min.
Ten μl/well of pre-formed complex are transferred into 384 well assay plates (Corning). Compounds to be profiled are serially diluted from […] in DMSO and 60 nl are added to assay plates by pintool transfer (CybiWell, Cybio).
For Kd determination, percent probe displacement values are calculated for each compound concentration and plotted against the compound concentration. […] Since the reporter probe is used at a concentration reflecting its own Kd value, compound Kd values can be calculated according to the Cheng Prusoff equation.

The target in experiment [2] is T1, HDAC2. The experiment in a line: Reporter displacement assay (HDAC2).

HDAC1, sequence (Q13547 whole entry): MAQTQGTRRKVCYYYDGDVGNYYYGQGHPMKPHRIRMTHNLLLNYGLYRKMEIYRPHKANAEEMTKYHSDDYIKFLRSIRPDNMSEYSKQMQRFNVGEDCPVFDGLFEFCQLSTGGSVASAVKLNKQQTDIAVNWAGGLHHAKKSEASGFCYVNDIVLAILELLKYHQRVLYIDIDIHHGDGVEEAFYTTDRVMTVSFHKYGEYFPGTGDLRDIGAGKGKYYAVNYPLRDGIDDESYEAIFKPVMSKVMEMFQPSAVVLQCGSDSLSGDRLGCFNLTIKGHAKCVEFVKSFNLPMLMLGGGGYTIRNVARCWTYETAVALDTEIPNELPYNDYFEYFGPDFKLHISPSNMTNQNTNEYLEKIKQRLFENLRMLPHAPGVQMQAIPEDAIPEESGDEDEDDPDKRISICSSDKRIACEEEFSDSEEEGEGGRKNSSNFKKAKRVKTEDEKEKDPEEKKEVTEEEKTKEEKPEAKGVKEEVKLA
T1 sequence (Q92769 whole entry): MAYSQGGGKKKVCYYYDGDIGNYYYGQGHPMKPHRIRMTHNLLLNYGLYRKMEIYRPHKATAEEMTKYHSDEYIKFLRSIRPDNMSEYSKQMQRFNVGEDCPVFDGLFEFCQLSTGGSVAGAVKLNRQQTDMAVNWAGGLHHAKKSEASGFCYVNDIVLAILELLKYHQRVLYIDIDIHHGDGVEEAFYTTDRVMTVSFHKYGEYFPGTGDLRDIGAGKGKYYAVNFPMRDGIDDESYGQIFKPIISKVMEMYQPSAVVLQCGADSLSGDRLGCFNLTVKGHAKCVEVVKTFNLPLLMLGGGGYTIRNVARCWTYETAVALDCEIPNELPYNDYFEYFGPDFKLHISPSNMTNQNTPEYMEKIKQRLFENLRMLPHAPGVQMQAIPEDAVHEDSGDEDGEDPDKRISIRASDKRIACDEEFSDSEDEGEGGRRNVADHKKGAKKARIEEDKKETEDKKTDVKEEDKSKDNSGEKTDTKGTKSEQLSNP

Consider `CNC(=O)N1CCc2nc(C(=O)Nc3cc(-c4ccc(F)cc4)ccc3N)sc2C1` [Compound 152], for which the Kd on HDAC2 [1] and on HDAC1 was below 100 nM in each case. The figures for the residence time on HDAC1 and at HDAC2 [2] were 1360 min and 2330 min, respectively.

Consider `Nc1ccc(-c2ccc(F)cc2)cc1NC(=O)N1CCC2(CC1)COC2` [Compound 127], for which the Kd at HDAC2 [1] is 100 to 500 nM; on HDAC1 it was below 100 nM. The residence time at HDAC1 came out at 1520 min; at HDAC2 [2], 2540 min.

As to `Nc1ccc(-c2ccncn2)cc1NC(=O)N1Cc2ccncc2C1` [Compound 103], the equilibrium dissociation constant (Kd) on HDAC2 [1] and on HDAC1 was 500 to 5000 nM each time. In addition, the residence time on HDAC1 came out at 330 min; at HDAC2 [2], 1960 min.

In the case of `Nc1ccc(-c2ccncc2)cc1NC(=O)N1CCC2(CCN(CCF)C2)CC1` [Compound 144], the Kd on HDAC2 [1] and at HDAC1 was 500 to 5000 nM throughout. Also, the values for the residence time on HDAC1 and at HDAC2 [2] were 296 min and 1490 min, respectively.

`Nc1ccc(-c2ccncc2)cc1NC(=O)N1Cc2nccnc2C1` [Compound 101]: the Kd on HDAC2 [1] was 100 to 500 nM; on HDAC1, below 100 nM. Also, the residence time at HDAC1 was found to be 906 min; on HDAC2 [2] it was 1930 min.

As for `Nc1ccc(-c2ccc(F)cc2)cc1NC(=O)N1CC2CN(C3COC3)CC2C1` (stereo not drawn) [Compound 126], the figures for the Kd at HDAC2 [1] and on HDAC1 were 100 to 500 nM and below 100 nM, respectively. Further, the figures for the residence time at HDAC1 and at HDAC2 [2] were 937 min and 2620 min, respectively.

`CC(C)OC(=O)N1CC2CN(C(=O)Nc3cc(-c4ccc(F)cc4)ccc3N)CC2C1` (stereo not drawn) [Compound 156]: the values for the Kd at HDAC2 [1] and at HDAC1 were 100 to 500 nM and below 100 nM, respectively. Also, the residence time on HDAC1 stood at 1200 min; on HDAC2 [2], 1800 min.

For the molecule `Nc1ccc(-c2ccc(F)c(F)c2)cc1NC(=O)c1cn2c(n1)CNCC2` [Compound 131], the Kd on HDAC2 [1] and at HDAC1 was 100 to 500 nM each time. Moreover, the residence time came out at 695 min on HDAC1 and 1200 min on HDAC2 [2].

Turning to `CC(C)(C)OC(=O)N1CCC2(CC1)CN(C(=O)Nc1cc(-c3ccc(F)cc3)ccc1N)C2` [Compound 166], the Kd on HDAC2 [1] and on HDAC1 was 500 to 5000 nM throughout. The residence time at HDAC1 turned out to be 84 min; on HDAC2 [2], 521 min.

`COCCN1CCC2(CCN(C(=O)Nc3cc(-c4ccncc4)ccc3N)CC2)C1` [Compound 136]: the figures for the Kd at HDAC2 [1] and at HDAC1 were 100 to 500 nM and below 100 nM, respectively. The residence time turned out to be 941 min at HDAC1 and 1540 min on HDAC2 [2].

As for `Nc1ccc(-c2ccco2)cc1NC(=O)N1Cc2ccncc2C1` [Compound 168], the Kd on HDAC2 [1] and on HDAC1 was below 100 nM throughout. The residence time was 1380 min at HDAC1 and 5570 min at HDAC2 [2].

In the case of `Nc1ccc(-c2ccc(F)c(F)c2)cc1NC(=O)N1Cc2nccnc2C1` [Compound 137], the Kd on HDAC2 [1] and at HDAC1 was 100 to 500 nM in each case. Moreover, the residence time at HDAC1 is 552 min; at HDAC2 [2], 1380 min.

Regarding `Nc1ccc(-c2ccc(F)cc2)cc1NC(=O)N1CC2CNCC2C1` (stereo not drawn) [Compound 114], the Kd was 500 to 5000 nM at HDAC2 [1] and above 5000 nM on HDAC1. Also, the residence time at HDAC1 was found to be 127 min; on HDAC2 [2], 1470 min.

For the molecule `Nc1ccc(-c2ccc(F)cc2)cc1NC(=O)N1CC2CCC(C1)O2` [Compound 111], the Kd at HDAC2 [1] and on HDAC1 was above 5000 nM in each case. Further, the results for the residence time at HDAC1 and on HDAC2 [2] were 34 min and 61 min, respectively.

On to `Nc1ccc(-c2ccncc2)cc1NC(=O)c1nc2c(s1)CCNC2` [Compound 174], for which the Kd on HDAC2 [1] and at HDAC1 was below 100 nM in each case. In addition, the residence time on HDAC1 was found to be 1350 min; at HDAC2 [2], 1940 min.

With `Nc1ccc(-c2ccncc2)cc1NC(=O)N1CCC2(CC1)CCN(C1COC1)C2` [Compound 165], the results for the Kd on HDAC2 [1] and on HDAC1 were 100 to 500 nM and 500 to 5000 nM, respectively. Further, the residence time at HDAC1 worked out at 259 min; on HDAC2 [2], 1720 min.

For the molecule `N#CC1CCc2nc(C(=O)Nc3cc(-c4ccc(F)cc4)ccc3N)cn2C1` (stereo not drawn) [Compound 128], the results for the Kd on HDAC2 [1] and on HDAC1 were 100 to 500 nM and below 100 nM, respectively. Moreover, the values for the residence time at HDAC1 and on HDAC2 [2] were 1730 min and 1500 min, respectively.

Take `CC(=O)N1C2CCC1CN(C(=O)Nc1cc(-c3ccc(F)cc3)ccc1N)C2` [Compound 116]: the Kd on HDAC2 [1] and at HDAC1 was above 5000 nM each time. In addition, the residence time on HDAC1 came out at 16 min; at HDAC2 [2], 30 min.

As to `Nc1ccc(-c2ccc(F)cc2)cc1NC(=O)N1CC2CN(C(=O)C3CC3)CC2C1` (stereo not drawn) [Compound 125], the Kd on HDAC2 [1] was 100 to 500 nM; at HDAC1 it was below 100 nM. Besides, the residence time is 788 min on HDAC1 and 1410 min at HDAC2 [2].

Turning to `Nc1ccc(-c2ccc(F)cc2)cc1NC(=O)N1CCC2(CC1)CCN(C1COC1)C2` [Compound 164], the Kd at HDAC2 [1] and on HDAC1 was 100 to 500 nM each time. Further, the results for the residence time on HDAC1 and on HDAC2 [2] were 1430 min and 2210 min, respectively.

On to `CC(C)(C)OC(=O)N1C2CCC1CN(C(=O)Nc1cc(-c3ccc(F)cc3)ccc1N)C2` [Compound 112], for which the Kd on HDAC2 [1] and at HDAC1 was above 5000 nM throughout. Moreover, the results for the residence time on HDAC1 and at HDAC2 [2] were 9 min and 38 min, respectively.

As to `Nc1ccc(-c2ccc(OC(F)F)cc2)cc1NC(=O)N1Cc2ccncc2C1` [Compound 162], the Kd at HDAC2 [1] and on HDAC1 was below 100 nM in each case. The figures for the residence time on HDAC1 and on HDAC2 [2] were 946 min and 1340 min, respectively.

`Nc1ccc(-c2ccccn2)cc1NC(=O)N1Cc2ccncc2C1` [Compound 146]: the results for the Kd at HDAC2 [1] and at HDAC1 were 500 to 5000 nM and 100 to 500 nM, respectively. Besides, the results for the residence time at HDAC1 and on HDAC2 [2] were 540 min and 1280 min, respectively.

`CC(C)(C)OC(=O)N1CCC2CN(C(=O)Nc3cc(-c4ccc(F)cc4)ccc3N)CC2C1` (stereo not drawn) [Compound 171]: the Kd on HDAC2 [1] and at HDAC1 was 100 to 500 nM throughout. Moreover, the residence time turned out to be 765 min on HDAC1 and 1610 min on HDAC2 [2].

`Nc1ccc(-c2ccc(F)cc2)cc1NC(=O)N1CCC2(CCNC2)CC1` [Compound 118]: the Kd was 100 to 500 nM on HDAC2 [1] and below 100 nM at HDAC1. Moreover, the residence time on HDAC1 amounted to 1180 min; at HDAC2 [2], 636 min.

Turning to `Nc1ccc(-c2ccc(C(F)(F)F)cc2)cc1NC(=O)N1Cc2ccncc2C1` [Compound 140], the Kd at HDAC2 [1] and on HDAC1 was 500 to 5000 nM in each case. Further, the residence time is 34 min at HDAC1 and 341 min on HDAC2 [2].

Regarding `Nc1ccc(-c2ccc(C(F)(F)F)cn2)cc1NC(=O)N1Cc2ccncc2C1` [Compound 167], the Kd on HDAC2 [1] and on HDAC1 was 500 to 5000 nM each time. Further, the values for the residence time at HDAC1 and on HDAC2 [2] were 140 min and 864 min, respectively.

As for `COC(=O)N1CC2CN(C(=O)Nc3cc(-c4ccc(F)cc4)ccc3N)CC2C1` (stereo not drawn) [Compound 154], the Kd on HDAC2 [1] and on HDAC1 was 100 to 500 nM throughout. Further, the values for the residence time on HDAC1 and on HDAC2 [2] were 1350 min and 1540 min, respectively.

Take `Nc1ccc(-c2ccc(F)cc2)cc1NC(=O)N1CC2CN(C(=O)OC3CCC3)CC2C1` (stereo not drawn) [Compound 159]: the Kd at HDAC2 [1] is 100 to 500 nM; at HDAC1, below 100 nM. Further, the residence time on HDAC1 came out at 1060 min; at HDAC2 [2], 2640 min.

As for `Nc1ccc(-c2ccncc2)cc1NC(=O)N1CC2CN(C3COC3)CC2C1` (stereo not drawn) [Compound 129], the Kd on HDAC2 [1] was 100 to 500 nM; on HDAC1, below 100 nM. Besides, the residence time at HDAC1 amounted to 724 min; at HDAC2 [2] it was 1700 min.

As to `Nc1ccc(-c2ccc(F)cc2F)cc1NC(=O)N1Cc2ccncc2C1` [Compound 133], the Kd on HDAC2 [1] was 100 to 500 nM; on HDAC1, below 100 nM. The residence time at HDAC1 is 1300 min; at HDAC2 [2] it was 1460 min.

In the case of `Nc1ccc(-c2ccc(F)cc2)cc1NC(=O)N1CCC2(CCN(CCF)C2)CC1` [Compound 143], the Kd is 100 to 500 nM at HDAC2 [1] and below 100 nM on HDAC1. Besides, the figures for the residence time at HDAC1 and on HDAC2 [2] were 1200 min and 1490 min, respectively.

For `NCC(=O)N1CC2CN(C(=O)Nc3cc(-c4ccc(F)cc4)ccc3N)CC2C1` (stereo not drawn) [Compound 121], the Kd at HDAC2 [1] was in the range of 500 to 5000 nM; on HDAC1 it was 100 to 500 nM. For the same molecule, the residence time on HDAC1 worked out at 587 min; on HDAC2 [2], 869 min.

The Kd is the equilibrium constant for the complex coming apart. A high value points to a looser complex.
